This data set can be described thus: MALDI-TOF screening of Ni^2+ dependent hydrolysis in a combinatorial peptide library. The data set is classed as physicochemical. The note with it: CH3CO-Gly-Ala-Thr-X-His-Z-Lys-Phe-Leu-NH2 library, Ni^2+ 2 mM, pH 8.2, 10 mM Tris, score=24/tm. In outline:
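Peptide sublibraries CH3CO-Gly-Ala-Ser/Thr-X-His-Z-Lys-Phe-Leu-NH2 (1 mM total) incubated with 2 mM Ni^2+ in 10 mM Tris pH 8.2 at 37 °C and 45 °C. Hydrolysis products, plus loss of substrate signals, detected by MALDI-TOF at 2, 4, 6 and 8 h; residues X and Z scored and ranked.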

The results in this text go back to patent US8969516B2, “Method of hydrolysis of peptide bond” (priority 2006, dated 2015).

As for Ac-GATTHDKFL-NH2 [TTHD], the “hydrolysis score from MALDI-TOF screening” value (“hydrolysis score” below) (37° C.) is given as 0 (a score of 0 if no trace of the product of hydrolysis was seen after 8 hours of incubation) and the “hydrolysis score” value (45° C.) is 0 (a score of 0 if no trace of the product of hydrolysis was seen after 8 hours of incubation).
As for Ac-GATTHEKFL-NH2 [TTHE], the “hydrolysis score” value (37° C.) was 0 (a score of 0 if no trace of the product of hydrolysis was seen after 8 hours of incubation) and the “hydrolysis score” value (45° C.) is listed as 0 (a score of 0 if no trace of the product of hydrolysis was seen after 8 hours of incubation).
For the substance Ac-GATTHFKFL-NH2 [TTHF], the “hydrolysis score” value runs as follows: (37° C.) 0 (a score of 0 if no trace of the product of hydrolysis was seen after 8 hours of incubation); (45° C.) 0 (a score of 0 if no trace of the product of hydrolysis was seen after 8 hours of incubation).
On to Ac-GATTHGKFL-NH2 [TTHG], for which the “hydrolysis score” value is 0 (a score of 0 if no trace of the product of hydrolysis was seen after 8 hours of incubation) (37° C.) and 0 (a score of 0 if no trace of the product of hydrolysis was seen after 8 hours of incubation) (45° C.).
For the substance Ac-GATTHHKFL-NH2 [TTHH], the “hydrolysis score” value was 0 (a score of 0 if no trace of the product of hydrolysis was seen after 8 hours of incubation) (37° C.) and 0 (a score of 0 if no trace of the product of hydrolysis was seen after 8 hours of incubation) (45° C.).
For the substance Ac-GATTHIKFL-NH2 [TTHI], the “hydrolysis score” value (37° C.) was 0 (a score of 0 if no trace of the product of hydrolysis was seen after 8 hours of incubation) and the “hydrolysis score” value (45° C.) is listed as 0 (a score of 0 if no trace of the product of hydrolysis was seen after 8 hours of incubation).
Consider Ac-GATTHKKFL-NH2 [TTHK], for which the “hydrolysis score” value (37° C.) is listed as 0 (a score of 0 if no trace of the product of hydrolysis was seen after 8 hours of incubation) and the “hydrolysis score” value (45° C.) is 0 (a score of 0 if no trace of the product of hydrolysis was seen after 8 hours of incubation).
For the substance Ac-GATTHLKFL-NH2 [TTHL], the “hydrolysis score” value (37° C.) is on record as 0 (a score of 0 if no trace of the product of hydrolysis was seen after 8 hours of incubation) and the “hydrolysis score” value (45° C.) was 0 (a score of 0 if no trace of the product of hydrolysis was seen after 8 hours of incubation).
Consider Ac-GATTHMKFL-NH2 [TTHM], for which the “hydrolysis score” value is listed as 0 (a score of 0 if no trace of the product of hydrolysis was seen after 8 hours of incubation) (37° C.) and 0 (a score of 0 if no trace of the product of hydrolysis was seen after 8 hours of incubation) (45° C.).
Regarding Ac-GATTHNKFL-NH2 [TTHN], the “hydrolysis score” value reads like this: (37° C.) 0 (a score of 0 if no trace of the product of hydrolysis was seen after 8 hours of incubation); (45° C.) 0 (a score of 0 if no trace of the product of hydrolysis was seen after 8 hours of incubation).
For the substance Ac-GATTHPKFL-NH2 [TTHP], the “hydrolysis score” value is, setting by setting: (37° C.) 0 (a score of 0 if no trace of the product of hydrolysis was seen after 8 hours of incubation); (45° C.) 0 (a score of 0 if no trace of the product of hydrolysis was seen after 8 hours of incubation).
Take Ac-GATTHQKFL-NH2 [TTHQ]: the “hydrolysis score” value (37° C.) is 0 (a score of 0 if no trace of the product of hydrolysis was seen after 8 hours of incubation) and the “hydrolysis score” value (45° C.) was 0 (a score of 0 if no trace of the product of hydrolysis was seen after 8 hours of incubation).
For the substance Ac-GATTHRKFL-NH2 [TTHR], the “hydrolysis score” value runs as follows: (37° C.) 0 (a score of 0 if no trace of the product of hydrolysis was seen after 8 hours of incubation); (45° C.) 3 (a score of 3 for detection at 8 hours).
On to Ac-GATTHSKFL-NH2 [TTHS], for which the “hydrolysis score” value is, setting by setting: (37° C.) 0 (a score of 0 if no trace of the product of hydrolysis was seen after 8 hours of incubation); (45° C.) 0 (a score of 0 if no trace of the product of hydrolysis was seen after 8 hours of incubation).
For the substance Ac-GATTHTKFL-NH2 [TTHT], the “hydrolysis score” value is recorded as 0 (a score of 0 if no trace of the product of hydrolysis was seen after 8 hours of incubation) (37° C.) and 0 (a score of 0 if no trace of the product of hydrolysis was seen after 8 hours of incubation) (45° C.).
As to Ac-GATTHVKFL-NH2 [TTHV], the “hydrolysis score” value was 0 (a score of 0 if no trace of the product of hydrolysis was seen after 8 hours of incubation) (37° C.) and 0 (a score of 0 if no trace of the product of hydrolysis was seen after 8 hours of incubation) (45° C.).
Take Ac-GATTHWKFL-NH2 [TTHW]: the “hydrolysis score” value runs as follows: (37° C.) 0 (a score of 0 if no trace of the product of hydrolysis was seen after 8 hours of incubation); (45° C.) 0 (a score of 0 if no trace of the product of hydrolysis was seen after 8 hours of incubation).
Take Ac-GATTHYKFL-NH2 [TTHY]: the “hydrolysis score” value (37° C.) is 0 (a score of 0 if no trace of the product of hydrolysis was seen after 8 hours of incubation) and the “hydrolysis score” value (45° C.) was 0 (a score of 0 if no trace of the product of hydrolysis was seen after 8 hours of incubation).
Consider Ac-GATVHAKFL-NH2 [TVHA], for which the “hydrolysis score” value (37° C.) is 0 (a score of 0 if no trace of the product of hydrolysis was seen after 8 hours of incubation) and the “hydrolysis score” value (45° C.) is recorded as 0 (a score of 0 if no trace of the product of hydrolysis was seen after 8 hours of incubation).
On to Ac-GATVHDKFL-NH2 [TVHD], for which the “hydrolysis score” value is 0 (a score of 0 if no trace of the product of hydrolysis was seen after 8 hours of incubation) (37° C.) and 0 (a score of 0 if no trace of the product of hydrolysis was seen after 8 hours of incubation) (45° C.).
As for Ac-GATVHEKFL-NH2 [TVHE], the “hydrolysis score” value (37° C.) is listed as 0 (a score of 0 if no trace of the product of hydrolysis was seen after 8 hours of incubation) and the “hydrolysis score” value (45° C.) is recorded as 0 (a score of 0 if no trace of the product of hydrolysis was seen after 8 hours of incubation).
With Ac-GATVHFKFL-NH2 [TVHF], the “hydrolysis score” value by setting is: (37° C.) 0 (a score of 0 if no trace of the product of hydrolysis was seen after 8 hours of incubation); (45° C.) 0 (a score of 0 if no trace of the product of hydrolysis was seen after 8 hours of incubation).
On to Ac-GATVHGKFL-NH2 [TVHG], for which the “hydrolysis score” value by setting is: (37° C.) 0 (a score of 0 if no trace of the product of hydrolysis was seen after 8 hours of incubation); (45° C.) 0 (a score of 0 if no trace of the product of hydrolysis was seen after 8 hours of incubation).
In the case of Ac-GATVHHKFL-NH2 [TVHH], the “hydrolysis score” value reads like this: (37° C.) 0 (a score of 0 if no trace of the product of hydrolysis was seen after 8 hours of incubation); (45° C.) 0 (a score of 0 if no trace of the product of hydrolysis was seen after 8 hours of incubation).
As to Ac-GATVHIKFL-NH2 [TVHI], the “hydrolysis score” value reads like this: (37° C.) 0 (a score of 0 if no trace of the product of hydrolysis was seen after 8 hours of incubation); (45° C.) 0 (a score of 0 if no trace of the product of hydrolysis was seen after 8 hours of incubation).
With Ac-GATVHKKFL-NH2 [TVHK], the “hydrolysis score” value is, setting by setting: (37° C.) 0 (a score of 0 if no trace of the product of hydrolysis was seen after 8 hours of incubation); (45° C.) 0 (a score of 0 if no trace of the product of hydrolysis was seen after 8 hours of incubation).
With Ac-GATVHLKFL-NH2 [TVHL], the “hydrolysis score” value (37° C.) is 0 (a score of 0 if no trace of the product of hydrolysis was seen after 8 hours of incubation) and the “hydrolysis score” value (45° C.) is 0 (a score of 0 if no trace of the product of hydrolysis was seen after 8 hours of incubation).
With Ac-GATVHMKFL-NH2 [TVHM], the “hydrolysis score” value reads like this: (37° C.) 0 (a score of 0 if no trace of the product of hydrolysis was seen after 8 hours of incubation); (45° C.) 0 (a score of 0 if no trace of the product of hydrolysis was seen after 8 hours of incubation).
In the case of Ac-GATVHPKFL-NH2 [TVHP], the “hydrolysis score” value (37° C.) is 0 (a score of 0 if no trace of the product of hydrolysis was seen after 8 hours of incubation) and the “hydrolysis score” value (45° C.) is recorded as 0 (a score of 0 if no trace of the product of hydrolysis was seen after 8 hours of incubation).
As for Ac-GATVHQKFL-NH2 [TVHQ], the “hydrolysis score” value runs as follows: (37° C.) 0 (a score of 0 if no trace of the product of hydrolysis was seen after 8 hours of incubation); (45° C.) 0 (a score of 0 if no trace of the product of hydrolysis was seen after 8 hours of incubation).
On to Ac-GATVHRKFL-NH2 [TVHR], for which the “hydrolysis score” value reads like this: (37° C.) 0 (a score of 0 if no trace of the product of hydrolysis was seen after 8 hours of incubation); (45° C.) 3 (a score of 3 for detection at 8 hours).
On the same counts, the results for Ac-GATVHSKFL-NH2 [TVHS] are 0 (a score of 0 if no trace of the product of hydrolysis was seen after 8 hours of incubation) and 0 (a score of 0 if no trace of the product of hydrolysis was seen after 8 hours of incubation).
Regarding Ac-GATVHVKFL-NH2 [TVHV], the “hydrolysis score” value runs as follows: (37° C.) 0 (a score of 0 if no trace of the product of hydrolysis was seen after 8 hours of incubation); (45° C.) 0 (a score of 0 if no trace of the product of hydrolysis was seen after 8 hours of incubation).
